Laboratory results from patent US20260217701A1, “SELECTIVE BET INHIBITORS AND USES THEREOF” (Tay Therapeutics Limited, priority 2022, published 2026).
“And” between values parts separate entries of the source, which are not always exact repeats. Identical values can stand only once.

Tested on: collagen-induced arthritis
Assay: Collagen-induced arthritis (CIA) model: clinical scores and paw volume; on Average animal paw volume percent change (%): reference of the scale not given here; on animal paw volume percent change (%): reference of the scale not given here
Type: in vivo, Lewis rats
Settings: for Average animal paw volume percent change (%) / Animal paw volume percent change (%) / Average animal paw volume: group 4 CIA + GSK620 (10 mg/kg); for Animal paw volume percent change (%) / clinical score left forelimb / clinical score left hind limb / clinical score right forelimb / clinical score right hind limb / clinical score, score (all limbs) / Animal paw volume: individual animals; for Animal paw volume: Group 4 (CIA + GSK620)
[1] = group 4 CIA + GSK620, 2nd section of table, 1st day (between Day 12 and Day 18)
[2] = group 4 CIA + GSK620, 2nd section of table, 2nd day (between Day 12 and Day 18)
[3] = group 4 CIA + GSK620, 2nd section of table, 3rd day (between Day 12 and Day 18)

CNC(=O)c1cc(C(=O)NC2CC2)cn(Cc2ccccc2)c1=O [GSK620]
Percent Inhibition in clinical score (Mean ± SD) (CIA rats, 10 mg/kg): 37 ± 14%
Percent Inhibition in paw volume (Mean ± SD) (CIA rats, 10 mg/kg): 28 ± 21%
Average animal paw volume percent change (%) (Day 0, L paw): 0.00%
Animal paw volume percent change (%) (Day 0, L paw): 0.00%
Average animal paw volume percent change (%) (Day 0, R paw): 0.00%
Animal paw volume percent change (%) (Day 0, R paw): 0.00%
Average overall clinical score (Day 0, CIA): 0
clinical score left forelimb (Day 0, CIA): 0
clinical score left hind limb (Day 0, CIA): 0
clinical score right forelimb (Day 0, CIA): 0
clinical score right hind limb (Day 0, CIA): 0
clinical score, score (all limbs) (Day 0, CIA): 0
Average animal paw volume (Day 6, L paw): 1.34 mL
Animal paw volume percent change (%) (Day 6, L paw, 10 mg/kg): −0.39% and −0.73% and 0.36% and 0.00% (2×) and −0.37%
Average animal paw volume (Day 6, R paw): 1.34 mL
Average animal paw volume percent change (%) (Day 6, R paw): 1.50%
Animal paw volume percent change (%) (Day 6, R paw, 10 mg/kg): −0.39% and 0.00% (4×)
Average overall clinical score (Day 6, CIA): 0
clinical score left forelimb (Day 6, CIA): 0
clinical score left hind limb (Day 6, CIA): 0
clinical score right forelimb (Day 6, CIA): 0
clinical score right hind limb (Day 6, CIA): 0
clinical score, score (all limbs) (Day 6, CIA): 0
Average animal paw volume (Day 12, L paw): 1.36 mL
Animal paw volume percent change (%) (Day 12, L paw, 10 mg/kg): 0.76% and 0.00% and 1.50%
Average animal paw volume (Day 12, R paw): 1.37 mL
Average overall clinical score (Day 12, CIA): 0
clinical score left forelimb (Day 12, CIA): 0
clinical score left hind limb (Day 12, CIA): 0
clinical score right forelimb (Day 12, CIA): 0
clinical score right hind limb (Day 12, CIA): 0
clinical score, score (all limbs) (Day 12, CIA): 0
Average animal paw volume (Day 13, L paw): 1.38 mL
Animal paw volume percent change (%) (Day 13, L paw, 10 mg/kg): −0.73%
Average animal paw volume (Day 13, R paw): 1.41 mL
Average detailed clinical score, right hind limb (Day 13, CIA): 0.125
Average detailed clinical score, score (Day 13, CIA): 0.125
Average overall clinical score (Day 13, CIA): 0
clinical score left forelimb (Day 13, CIA): 0
clinical score left hind limb (Day 13, CIA): 0
clinical score right forelimb (Day 13, CIA): 0
clinical score right hind limb (Day 13, CIA): 0 (6×) and 1
clinical score, score (all limbs) (Day 13, CIA): 0 (6×) and 1
Animal paw volume (Day 13, L paw): 1.40 mL
Animal paw volume (Day 13, R paw): 1.40 mL
Animal paw volume percent change (%) (Day 14, L paw, 10 mg/kg): −0.37%
Animal paw volume percent change (%) (Day 14, R paw, 10 mg/kg): 4.40%
Average detailed clinical score, left hind limb (Day 14, CIA): 0.875
Average detailed clinical score, right hind limb (Day 14, CIA): 1.125
Average overall clinical score (Day 14, CIA): 2
clinical score left forelimb (Day 14, CIA): 0
clinical score left hind limb (Day 14, CIA): 0 (4×) and 2 (2×) and 1
clinical score right forelimb (Day 14, CIA): 0
clinical score right hind limb (Day 14, CIA): 0 (4×) and 2 (2×) and 3
clinical score, score (all limbs) (Day 14, CIA): 0 (3×) and 4 and 3 (2×) and 2
Animal paw volume (Day 14, L paw): 1.40 mL
Average animal paw volume (Day 15, L paw): 1.74 mL
Animal paw volume percent change (%) (Day 15, R paw, 10 mg/kg): 59.00%
Average detailed clinical score, left hind limb (Day 15, CIA): 1.625
Average detailed clinical score, score (Day 15, CIA): 3.625
Average overall clinical score (Day 15, CIA): 4
clinical score left forelimb (Day 15, CIA): 0
clinical score left hind limb (Day 15, CIA): 1 (2×) and 3 (3×) and 0 (2×)
clinical score right forelimb (Day 15, CIA): 0
clinical score right hind limb (Day 15, CIA): 1 and 3 (3×) and 0 (2×) and 4
clinical score, score (all limbs) (Day 15, CIA): 2 and 6 (3×) and 0 and 4 and 1
Animal paw volume (Day 15, L paw): 1.60 mL
Average overall clinical score (Day 18, CIA): 7
Average animal paw volume (Day 19, L paw): 2.54 mL
Animal paw volume percent change (%) (Day 19, L paw, 10 mg/kg): 83.00% and 100.00%
Average overall clinical score (Day 19, CIA): 8
Animal paw volume (Day 19, R paw): 2.20 mL
Average overall clinical score (Day 21, CIA): 8
clinical score left forelimb [1]: 0
clinical score left hind limb [1]: 0
clinical score right forelimb [1]: 0
clinical score right hind limb [1]: 0
clinical score, score (all limbs) [1]: 0
clinical score left forelimb [2]: 0
clinical score left hind limb [2]: 2
clinical score right forelimb [2]: 0
clinical score right hind limb [2]: 2
clinical score, score (all limbs) [2]: 4
clinical score left forelimb [3]: 0
clinical score left hind limb [3]: 2
clinical score right forelimb [3]: 0
clinical score right hind limb [3]: 2
clinical score, score (all limbs) [3]: 4
clinical score left forelimb (group 4 CIA + GSK620, Day 18): 0
clinical score left hind limb (group 4 CIA + GSK620, Day 18): 4 (7×) and 3
clinical score right forelimb (group 4 CIA + GSK620, Day 18): 0
clinical score right hind limb (group 4 CIA + GSK620, Day 18): 4 (6×) and 0 and 3
clinical score, score (all limbs) (group 4 CIA + GSK620, Day 18): 8 (6×) and 4 and 6
clinical score left forelimb (group 4 CIA + GSK620, Day 19): 1 (6×) and 0 (2×)
clinical score left hind limb (group 4 CIA + GSK620, Day 19): 4 (5×) and 3 (3×)
clinical score right forelimb (group 4 CIA + GSK620, Day 19): 0 (6×) and 1 (2×)
clinical score right hind limb (group 4 CIA + GSK620, Day 19): 4 (3×) and 3 (4×) and 0
clinical score, score (all limbs) (group 4 CIA + GSK620, Day 19): 9 (2×) and 10 and 6 and 5 and 7 (2×) and 8
clinical score left forelimb (group 4 CIA + GSK620, Day 20): 1 (5×) and 2 and 0 (2×)
clinical score left hind limb (group 4 CIA + GSK620, Day 20): 4 (5×) and 3 (3×)
clinical score right forelimb (group 4 CIA + GSK620, Day 20): 0 (6×) and 1 (2×)
clinical score right hind limb (group 4 CIA + GSK620, Day 20): 4 (3×) and 3 (4×) and 1
clinical score, score (all limbs) (group 4 CIA + GSK620, Day 20): 9 (2×) and 11 and 6 (2×) and 7 (2×) and 8
